pIC50, pKd: −log10 of the molar value.
Key:
[1] = target: D-amino acid oxidase (DAAO) (Homo sapiens, UniProt P14920); test: DAAO enzymatic assay; type: biochemical; conditions: 5 mM D-serine, pH 8.5
Experimental: A reaction mixture for the DAAO assay, with a final volume of 100 µL was made with 1 µL 2 times serially diluted α12G (4 µM to 7.8 nM), 45 µM FAD, 10 units of HRP, 60 ng DAAO, 10 mM Amplex Red^TM, 5 mM D-serine, and 100 mM Tris HCl (pH = 8.5). All reactions were performed in duplicates. The fluorescence was detected by a fluorometric meter (TECAN Infinite 200). The racemization percentage was calculated as follows: activity % = (Fsample, 20 min − Fsample, 0 min)/(Fblank, 20 min − Fblank, 0 min) × 100%.

[2] = system: MK-801-induced memory impairment; test: Novel object recognition test in MK-801-treated mice; type: in vivo, C57BL/6J male mice; conditions: 10 mg/kg oral, 0.2 mg/kg MK-801 IP; p < 0.01, n = 8
Experimental: (§1) For behavioral studies, α12G was dissolved in 35% PEG-400 and administrated by oral gavage 20 min prior to the MK-801 insult. MK-801 (Sigma-Aldrich, St. Louis, MO, USA) was administrated via intraperitoneal (IP) injection 20 min prior to the behavioral tests, with the dosage of 0.2 mg/kg for the open field test and novel object recognition test and 0.3 mg/kg for the prepulse inhibition test.
C57BL/6J male mice were randomly assigned into five groups, 6–8 mice per group, (1) saline control, (2) MK-801, (3) 1 mg/kg α12G + MK-801, (4) 3 mg/kg α12G + MK-801, and (5) 10 mg/kg α12G + MK-801. A novel object recognition test (NOR) was conducted in a square chamber (40 × 40 × 40 cm) under 15–20 lux light intensity, and a digital camera was used to record the behaviors. The test consisted of two sessions. In session I, mice were allowed to explore the chamber with two identical objects (yellow square Lego bricks) for 5 min and were then moved to the home cage for 5 min. In session II, mice were allowed to explore the chamber with one object kept the same (familiar object) and the other replaced with a novel object (blue circular bottle cap) for 10 min. The interaction of mice with both the objects (familiar vs. novel) was recorded, and the discrimination index was calculated with the following formula:Discrimination index = Time (novel object) − Time (familiar object)/Total exploring time

[3] = system: MK-801-induced hyperactivity; test: Open field test in MK-801-treated mice; type: in vivo, C57BL/6J male mice; conditions: oral gavage 20 min before 0.2 mg/kg MK-801 IP; p < 0.001, n = 8
Experimental: as §1
C57BL/6J male mice were randomly assigned into six groups, 7–12 mice per group, (1) saline control, (2) MK-801, (3) 1 mg/kg α12G + MK-801, (4) 3 mg/kg α12G + MK-801, (5) 10 mg/kg α12G + MK-801, and (6) 30 mg/kg α12G + MK-801. The mice were placed in a Plexiglas cage (37.5 × 21.5 × 18 cm), and their spontaneous locomotor activities were measured for 60 min using a Photobeam Activity System (PAS) open field (San Diego Instruments, San Diego, CA, USA). The total photo beam breaks of each mouse were measured as an index of locomotor activity.

hSR = target: T1, hSR (Homo sapiens, UniProt Q9GZT4); test: Intrinsic tryptophan fluorescence (ITF) binding assay; conditions: 0.25 mM ATP, Hill slope model
T1 construct: 6xHis (C); made in house; host or cells: E. coli BL21 (pET42b-hSR)
T1 sequence (Q9GZT4 1-340): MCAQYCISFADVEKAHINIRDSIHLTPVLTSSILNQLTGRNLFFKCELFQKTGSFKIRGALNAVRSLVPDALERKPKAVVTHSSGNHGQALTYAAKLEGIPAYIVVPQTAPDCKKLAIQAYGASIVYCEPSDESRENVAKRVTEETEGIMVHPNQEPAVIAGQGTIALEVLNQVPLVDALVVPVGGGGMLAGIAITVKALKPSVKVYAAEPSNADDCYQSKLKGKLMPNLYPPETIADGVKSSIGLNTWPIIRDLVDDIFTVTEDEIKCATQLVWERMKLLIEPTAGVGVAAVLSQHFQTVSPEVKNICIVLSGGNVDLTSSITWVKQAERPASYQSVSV
Experimental: First, 30 µL of 2 µM hSR protein was added into 270 µL buffer (100 mM Tris-HCl, pH 8.0, 1 mM MgCl2, 0.25 mM ATP, 50 µM PLP, 10% DMSO) with ligand and subsequently reacted for 20 min at room temperature. All samples were measured in triplicates and excited at 282 nm. The emission spectra were measured with a 5 nm bandwidth resolution at 300 to 400 nm wavelengths by a Varioskan™ LUX multimode microplate reader (Thermo Fisher Scientific, Lagoas Park, Porto Salvo, Portugal). The fluorescence intensity collected at 304 nm was analyzed using GraphPad Prism 8 software (Dotmatics, Boston, MA, USA). The dissociation constant (Kd) was derived by specific binding with the Hill slope model: Y = Bmax × X^n/(Kd^n + X^n), with X being the ligand concentration, maximum number of binding sites (Bmax) being the maximum specific binding, and n being Hill slope.
The Hill coefficient (n) of 1.28 is close to n = 1, indicating a noncooperative binding.

Sequence of D-amino acid oxidase (DAAO) (P14920 whole entry, species assumed): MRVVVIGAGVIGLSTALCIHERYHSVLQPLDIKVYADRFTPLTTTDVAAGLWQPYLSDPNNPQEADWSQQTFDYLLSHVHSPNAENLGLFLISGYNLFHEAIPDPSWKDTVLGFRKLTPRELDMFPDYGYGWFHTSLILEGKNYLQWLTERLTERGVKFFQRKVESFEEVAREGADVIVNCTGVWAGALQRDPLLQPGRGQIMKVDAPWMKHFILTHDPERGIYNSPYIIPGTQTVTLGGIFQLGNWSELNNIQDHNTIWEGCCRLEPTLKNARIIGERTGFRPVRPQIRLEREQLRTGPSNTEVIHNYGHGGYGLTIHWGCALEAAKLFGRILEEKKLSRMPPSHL

- pIC50 [1]: 6.80
- Bmax (hSR): 96.86 fmol/mg
- pKd (hSR; read-out: binding affinity (Kd)): 6.62
SMILES: O=C(Oc1cc(C(=O)Oc2cc(C(=O)O[C@H]3OC[C@@H](OC(=O)c4cc(O)c(O)c(OC(=O)c5cc(O)c(O)c(OC(=O)c6cc(O)c(O)c(O)c6)c5)c4)[C@H](OC(=O)c4cc(O)c(O)c(OC(=O)c5cc(O)c(O)c(OC(=O)c6cc(O)c(O)c(O)c6)c5)c4)[C@H]3OC(=O)c3cc(O)c(O)c(OC(=O)c4cc(O)c(O)c(OC(=O)c5cc(O)c(O)c(O)c5)c4)c3)cc(O)c2O)cc(O)c1O)c1cc(O)c(O)c(O)c1 [α12G, (2R,3R,4S,5R)-tetrahydro-2H-pyran-2,3,4,5-tetrayl tetrakis(3-((3,4-dihydroxy-5-((3,4,5-trihydroxybenzoyl)oxy)benzoyl)ox)-4,5-dihydroxybenzoate)]
- Effect on MK-801-induced memory impairment (novel object recognition) [2]: attenuated this MK-801-induced memory impairment
- Effect on MK-801-induced hyperactivity (locomotor activity) [3]: alleviated the MK-801-induced hyperactivity

Reference: paper PMC11048566, “The Development of a Regulator of Human Serine Racemase for N-Methyl-D-aspartate Function” (Biomedicines, 2024)
